{"source": "patent US20060257502A1", "about": "“A COMBINATION OF MITOCHONDRIAL NUTRIENTS FOR RELIEVING STRESS, PREVENTING AND IMPROVING STRESS-RELATED DISORDERS” (priority 2005, published 2006)", "origin": "cited, not measured here", "tested_on": "rats", "data": [{"smiles": "Oc1ccc(/C=C/c2cc(O)cc(O)c2)cc1", "note": "[Resveratrol, trans-3,5,4′-trihydroxystilbene]", "values": [{"measurement": "No observed adverse effect level", "value": "300 mg per kilogram body weight per day"}]}]}
